Test system: Quadruplex DNA
Experiment: Binding affinity to c-myc G-quadruplex DNA (unknown origin) assessed as increase in melting temperature at 50 uM by CD-spectrometric analysis
Type: nucleic-acid assay

Question: With `Cc1ccc(NC(=O)c2c(C)oc3ccc(O)c(CN4CCCCCC4)c23)cc1` as the compound, how does the ΔTm read?
Answer: 2.1 °C
